In ChEMBL document CHEMBL1153131, “Synthesis and antitumor activity of novel 2',3'-dideoxy-2',3'-diethanethionucleosides bearing 1,2,3-triazole residues” (Bioorg Med Chem Lett, 2010):

Key:
Format in all cases: functional, cell-based
HepG2 = assay: Cytotoxicity against human HepG2 cells after 72 hrs by MTT assay
[1] = Cytotoxicity against human LAC cells after 72 hrs by MTT assay
A549 = assay: Cytotoxicity against human A549 cells after 72 hrs by MTT assay; conditions: A549, 72 h
HeLa = assay: Cytotoxicity against human HeLa cells after 72 hrs by MTT assay
[2] = Homo sapiens, HepG2, 72 h, read-out: EC50
[3] = Homo sapiens, LAC, 72 h, read-out: EC50

Structure (SMILES)	EC50 (HepG2; [2]) [µM]	EC50 [1, 3] [µM]	EC50 (A549) [µM]	EC50 (HeLa) [µM]	EC50 (HepG2; hepg2)	EC50 ([1]; lac)
CCS[C@@H]1[C@H](SCC)[C@@H](CO)O[C@H]1n1cc(Cn2cc(C)c(=O)[nH]c2=O)nn1	> 100	> 100	> 100	> 100	–	–
CCS[C@@H]1[C@H](SCC)[C@@H](CO)O[C@H]1n1cc(C(=O)NC)nn1	> 100	> 100	> 100	> 100	–	–
O=c1[nH]c(=O)n([C@H]2C[C@H](O)[C@@H](CO)O2)cc1F [FLOXURIDINE]	18.8	32.1	9.74	10.3	–	–
CCS[C@@H]1[C@H](SCC)[C@@H](CO)O[C@H]1n1cc(C)c(=O)[nH]c1=O	–	–	86.4	29.5	Not Active	Not Active
CCS[C@@H]1[C@H](SCC)[C@@H](CO)O[C@H]1n1cc(CO)nn1	> 100	> 100	> 100	> 100	–	–
CCS[C@@H]1[C@H](SCC)[C@@H](CO)O[C@H]1n1cc(-c2ccc(F)cc2)nn1	9.62	16.2	20.2	6.92	–	–
CCS[C@@H]1[C@H](SCC)[C@@H](CO)O[C@H]1n1ccc(=O)[nH]c1=O	74.7	–	87.4	75.7	–	Not Active
CCS[C@@H]1[C@H](SCC)[C@@H](CO)O[C@H]1n1cc(-c2ccccc2)nn1	9.6	20.7	44.1	11.2	–	–
CCS[C@@H]1[C@H](SCC)[C@@H](CO)O[C@H]1n1ccc(N)nc1=O	116	–	86.4	177	–	Not Active
CCS[C@@H]1[C@H](SCC)[C@@H](CO)O[C@H]1n1cc(-c2ccc(OC)cc2)nn1	11	14.5	23.4	5.69	–	–
CCS[C@@H]1[C@H](SCC)[C@@H](CO)O[C@H]1n1cc(Cn2ccc(N)nc2=O)nn1	> 100	> 100	> 100	> 100	–	–
